Measurements from publication PMC2707017, “Synthesis and enzymatic evaluation of 2- and 4-aminothiazole-based inhibitors of neuronal nitric oxide synthase” (Beilstein Journal of Organic Chemistry, 2009).

Assays:
[1] = molecular target: T1, rat nNOS (Rattus norvegicus, UniProt P29476); details: cited from earlier work
[2] = molecular target: T2, bovine eNOS (Bos taurus, UniProt P29473); details: nNOS over eNOS; cited from earlier work
[3] = system: neuronal damage; set-up: method as in PMID 19235180; details: intravenous administration, cerebral palsy rabbit model; cited from earlier work
[4] = set-up: method as in printed; details: aminothiazole ring nitrogen; stated without measurement, ref not given; cited from earlier work
[5] = molecular target: T1, rat nNOS; assay: hemoglobin capture assay, nNOS
Experimental: In vitro enzyme assay. The NOS isoforms used were recombinant enzymes overexpressed in E. coli. Rat nNOS [6], bovine eNOS [7], and murine macrophage iNOS [8], and were overexpressed and isolated as reported. The formation of nitric oxide was monitored using a hemoglobin capture assay as described previously. […] For the determination of inhibition of iNOS, no additional Ca^2+ or calmodulin were added. The assay was initiated by the addition of enzyme, and the absorption of UV light at 400 nm was recorded over one minute. As NO was evolved and coordinated to the hemoglobin, the absorption at 400 nm increased, producing a value for the enzyme velocity under these conditions. A value for the initial rate was obtained when no inhibitor was added (v0). The velocity of the enzyme (v) was then determined in the presence of varying concentrations of inhibitor, until a concentration of inhibitor that reduced the enzyme velocity to half its initial value (v/v0 ~ 0.5) was discovered. Concentrations of inhibitor above and below this value were tested and a graph of v/v0 versus inhibitor concentration ([I]) was plotted. Experiments were repeated at least three times and until a R^2 >0.99 was obtained. Extrapolation of this graph allowed the determination of an IC50 value. The Ki can be estimated from the IC50 if the Km for the substrate is known, using the equations below.

[6] = molecular target: T2, bovine eNOS; assay: hemoglobin capture assay, eNOS
Experimental: (§1) The NOS isoforms used were recombinant enzymes overexpressed in E. coli. Rat nNOS [6], bovine eNOS [7], and murine macrophage iNOS [8], and were overexpressed and isolated as reported. The formation of nitric oxide was monitored using a hemoglobin capture assay as described previously. Briefly, a solution of nNOS or eNOS containing 10 µM L-arginine, 1.6 mM CaCl2, 11.6 µg/mL calmodulin, 100 µM DTT, 100 µM NADPH, 6.5 µM H4B, 125 µg/mL oxyhemoglobin, and varying concentrations of inhibitor in 100 mM Hepes (pH 7.4) was monitored at 30 °C. For the determination of inhibition of iNOS, no additional Ca^2+ or calmodulin were added. The assay was initiated by the addition of enzyme, and the absorption of UV light at 400 nm was recorded over one minute. As NO was evolved and coordinated to the hemoglobin, the absorption at 400 nm increased, producing a value for the enzyme velocity under these conditions. A value for the initial rate was obtained when no inhibitor was added (v0). The velocity of the enzyme (v) was then determined in the presence of varying concentrations of inhibitor, until a concentration of inhibitor that reduced the enzyme velocity to half its initial value (v/v0 ~ 0.5) was discovered. Concentrations of inhibitor above and below this value were tested and a graph of v/v0 versus inhibitor concentration ([I]) was plotted. […]

[7] = molecular target: murine iNOS (Mus musculus, UniProt P29477); assay: hemoglobin capture assay, iNOS
Experimental: as §1

In the case of `NCCN[C@@H]1CNC[C@@H]1Cc1cccc(N)n1` (relative stereo) [Compound 1], the nNOS inhibitory potency [1] is listed as “nanomolar” and the “selectivity over eNOS” value [2] is listed as “more than 1000 fold”.

For `Cc1cc(N)nc(C[C@H]2CNC[C@H]2NCCNCc2ccc(Cl)cc2)c1` (relative stereo) [Compound 2], the “protection against neuronal damage” value [3] is given as “significant protection against neuronal damage”.

In the case of `Nc1nc(CC2CNCC2NCCNCc2ccc(Cl)cc2)cs1` (stereo not shown) [Compound 3], the “pKa of ring nitrogen” value [4] is listed as “≈ 6”, the Ki [5] is listed as 10 µM and the Ki [6] is listed as 1000 µM. The Ki [7] was 50 µM.
